Reference: the supplement of paper PMC13207355

Assays:
Settings in all cases: exposure time: 72 h
E31 [1] = patient-derived glioblastoma stem cells of proneural subtype; assay: phenotypic distance (Euclidean, principal components) from DMSO controls (arbitrary units); higher = stronger morphological change
E57 [2] = patient-derived glioblastoma stem cells of mesenchymal subtype; assay: as above
E21 [3] = patient-derived glioblastoma stem cells of mesenchymal subtype; assay: as above
E34 [4] = patient-derived glioblastoma stem cells of proneural subtype; assay: as above
E28 [5] = patient-derived glioblastoma stem cells of classical subtype; assay: as above
E13 [6] = patient-derived glioblastoma stem cells of classical subtype; assay: as above
FT3469 [7] = normal neural stem cell line; assay: as above
E31 [8] = assay: surviving fraction (nuclei count normalised to DMSO); higher = more cells surviving (less toxic)
E57 [9] = assay: as above
E21 [10] = assay: as above
E34 [11] = assay: as above
E28 [12] = assay: as above
E13 [13] = assay: as above
FT3469 [14] = assay: as above
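Throughout, for phenotypic distance (Euclidean, principal components) from DMSO controls: cell Painting imaging in 384-well plates, CellProfiler features reduced to at least 20 principal components, Euclidean distance versus same-plate DMSO vehicle wells (0.1% v/v), median over six images per well.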
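Throughout, for surviving fraction (nuclei count normalised to DMSO): nuclei counted by high-content imaging of Hoechst-stained cells in laminin-coated 384-well plates, relative to 0.1% DMSO vehicle wells, with staurosporine as cell-death control.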

COc1cc([C@@H]2c3cc4c(cc3[C@@H](O[C@@H]3O[C@@H]5CO[C@@H](c6cccs6)O[C@H]5[C@H](O)[C@H]3O)[C@H]3COC(=O)[C@H]23)OCO4)cc(OC)c1O [Teniposide]
phenotypic distance (E31 [1]; 4.1 nM): 4.09
phenotypic distance (E31 [1]; 12.3 nM): 2.97
phenotypic distance (E31 [1]; 37 nM): 3.3
phenotypic distance (E31 [1]; 111.1 nM): 3.9
phenotypic distance (E31 [1]; 333.3 nM): 2.97
phenotypic distance (E31 [1]; 1000 nM): 2.67
phenotypic distance (E31 [1]; 3000 nM): 3.37
phenotypic distance (E57 [2]; 4.1 nM): 1.82
phenotypic distance (E57 [2]; 12.3 nM): 4.96
phenotypic distance (E57 [2]; 37 nM): 6.24
phenotypic distance (E57 [2]; 111.1 nM): 8.39
phenotypic distance (E57 [2]; 333.3 nM): 8.07
phenotypic distance (E57 [2]; 1000 nM): 6.94
phenotypic distance (E57 [2]; 3000 nM): 6.61
phenotypic distance (E21 [3]; 4.1 nM): 0.843
phenotypic distance (E21 [3]; 12.3 nM): 2.77
phenotypic distance (E21 [3]; 37 nM): 3.95
phenotypic distance (E21 [3]; 111.1 nM): 5.39
phenotypic distance (E21 [3]; 333.3 nM): 5.06
phenotypic distance (E21 [3]; 1000 nM): 6.2
phenotypic distance (E21 [3]; 3000 nM): 6.57
phenotypic distance (E34 [4]; 4.1 nM): 1.81
phenotypic distance (E34 [4]; 12.3 nM): 2.04
phenotypic distance (E34 [4]; 37 nM): 3.24
phenotypic distance (E34 [4]; 111.1 nM): 3.96
phenotypic distance (E34 [4]; 333.3 nM): 4.04
phenotypic distance (E34 [4]; 1000 nM): 2.46
phenotypic distance (E34 [4]; 3000 nM): 2.97
phenotypic distance (E28 [5]; 4.1 nM): 3.11
phenotypic distance (E28 [5]; 12.3 nM): 3.7
phenotypic distance (E28 [5]; 37 nM): 3.52
phenotypic distance (E28 [5]; 111.1 nM): 3.17
phenotypic distance (E28 [5]; 333.3 nM): 3.7
phenotypic distance (E28 [5]; 1000 nM): 3.58
phenotypic distance (E28 [5]; 3000 nM): 3.53
phenotypic distance (E13 [6]; 4.1 nM): 1.43
phenotypic distance (E13 [6]; 12.3 nM): 3.27
phenotypic distance (E13 [6]; 37 nM): 4.96
phenotypic distance (E13 [6]; 111.1 nM): 5.68
phenotypic distance (E13 [6]; 333.3 nM): 5.77
phenotypic distance (E13 [6]; 1000 nM): 5.12
phenotypic distance (E13 [6]; 3000 nM): 6.24
phenotypic distance (FT3469 [7]; 4.1 nM): 1.68
phenotypic distance (FT3469 [7]; 12.3 nM): 2.44
phenotypic distance (FT3469 [7]; 37 nM): 2.6
phenotypic distance (FT3469 [7]; 111.1 nM): 2.26
phenotypic distance (FT3469 [7]; 333.3 nM): 1.97
phenotypic distance (FT3469 [7]; 1000 nM): 1.78
phenotypic distance (FT3469 [7]; 3000 nM): 2.12
surviving fraction (E31 [8]; 4.1 nM): 0.376
surviving fraction (E31 [8]; 12.3 nM): 0.25
surviving fraction (E31 [8]; 37 nM): 0.241
surviving fraction (E31 [8]; 111.1 nM): 0.201
surviving fraction (E31 [8]; 333.3 nM): 0.2
surviving fraction (E31 [8]; 1000 nM): 0.243
surviving fraction (E31 [8]; 3000 nM): 0.191
surviving fraction (E57 [9]; 4.1 nM): 0.727
surviving fraction (E57 [9]; 12.3 nM): 0.418
surviving fraction (E57 [9]; 37 nM): 0.323
surviving fraction (E57 [9]; 111.1 nM): 0.212
surviving fraction (E57 [9]; 333.3 nM): 0.167
surviving fraction (E57 [9]; 1000 nM): 0.178
surviving fraction (E57 [9]; 3000 nM): 0.148
surviving fraction (E21 [10]; 4.1 nM): 0.902
surviving fraction (E21 [10]; 12.3 nM): 0.682
surviving fraction (E21 [10]; 37 nM): 0.589
surviving fraction (E21 [10]; 111.1 nM): 0.552
surviving fraction (E21 [10]; 333.3 nM): 0.376
surviving fraction (E21 [10]; 1000 nM): 0.145
surviving fraction (E21 [10]; 3000 nM): 0.177
surviving fraction (E34 [11]; 4.1 nM): 0.758
surviving fraction (E34 [11]; 12.3 nM): 0.677
surviving fraction (E34 [11]; 37 nM): 0.577
surviving fraction (E34 [11]; 111.1 nM): 0.57
surviving fraction (E34 [11]; 333.3 nM): 0.501
surviving fraction (E34 [11]; 1000 nM): 0.447
surviving fraction (E34 [11]; 3000 nM): 0.373
surviving fraction (E28 [12]; 4.1 nM): 0.491
surviving fraction (E28 [12]; 12.3 nM): 0.379
surviving fraction (E28 [12]; 37 nM): 0.428
surviving fraction (E28 [12]; 111.1 nM): 0.351
surviving fraction (E28 [12]; 333.3 nM): 0.32
surviving fraction (E28 [12]; 1000 nM): 0.269
surviving fraction (E28 [12]; 3000 nM): 0.314
surviving fraction (E13 [13]; 4.1 nM): 0.713
surviving fraction (E13 [13]; 12.3 nM): 0.528
surviving fraction (E13 [13]; 37 nM): 0.45
surviving fraction (E13 [13]; 111.1 nM): 0.412
surviving fraction (E13 [13]; 333.3 nM): 0.351
surviving fraction (E13 [13]; 1000 nM): 0.305
surviving fraction (E13 [13]; 3000 nM): 0.174
surviving fraction (FT3469 [14]; 4.1 nM): 0.636
surviving fraction (FT3469 [14]; 12.3 nM): 0.643
surviving fraction (FT3469 [14]; 37 nM): 0.644
surviving fraction (FT3469 [14]; 111.1 nM): 0.62
surviving fraction (FT3469 [14]; 333.3 nM): 0.595
surviving fraction (FT3469 [14]; 1000 nM): 0.629
surviving fraction (FT3469 [14]; 3000 nM): 0.544
